Data: patent US11311013B2, “Benzimidazole compound or salt thereof, agricultural and horticultural insecticidal and acaricidal agent containing said compound, and method for using same” (NIHON NOHYAKU CO., LTD., priority 2018, dated 2022)

Tested on: Diamondback moth (Plutella xylostella)
Test: Insecticidal test on diamondback moth, dip of Chinese cabbage seedlings with laid eggs
Type: in vivo
Conditions: 144 h, dip about 30 seconds, 25° C., 6 days after dip treatment, hatched larvae counted, read-out: insecticidal efficacy (corrected mortality rate) activity level
Source text: Insecticidal Test on Diamondback Moth (Plutella xylostella)
Adults of diamondback moth were released onto Chinese cabbage seedlings and allowed to lay eggs thereon. At 2 days after the release of the adults, the Chinese cabbage seedlings with laid eggs were dipped for about 30 seconds in agrochemical dispersions diluted to 500 ppm, each of which contained a different benzimidazole compound represented by the general formula (1) of the present invention or salt thereof as an active ingredient. After air-dried, the seedlings were kept in a thermostatic chamber at 25° C. At 6 days after the dip treatment, the number of hatched larvae per plot was counted, the corrected mortality rate was calculated according to the formula shown below, and the insecticidal efficacy was evaluated according to the criteria of Test Example 2. This test was conducted in triplicate using 10 adults of diamondback moth per plot. Corrected mortality rate (%)=(Number of hatched larvae in a non-treatment plot−Number of hatched larvae in a treatment plot)/(Number of hatched larvae in a non-treatment plot)×100 [Expression 3]

| SMILES | mortality at 500 ppm |
| --- | --- |
| CCS(=O)(=O)n1c(-c2ccc(OCC(F)(F)C(F)(F)F)nc2)nc2ccccc21 [Compound 1-2, 2-(2-(2,2,3,3,3-pentafluoropropyloxy)pyridin-5-yl)-1-ethanesulfonyl benzimidazole] | 100% |

Tested on: Two-spotted spider mite (Tetranychus urticae)
Test: Acaricidal action on two-spotted spider mite, kidney bean leaf disk spray
Type: in vivo
Conditions: 500 ppm, 25° C., two days after treatment
Method: Acaricidal Action on Two-Spotted Spider Mite (Tetranychus urticae)
Leaf disk having a diameter of 2 cm was prepared by leaves of kidney bean, and the leaf disk was placed on the wetted filter paper. Adult hens of two-spotted spider mite were inoculated on the wetted filter paper, and then 50 ml of an agrochemical dispersion, prepared by diluting a formulation containing the benzimidazole compound represented by the general formula (1) of the present invention or salt thereof as an active ingredient to adjust each of the concentrations to 500 ppm, was sprayed on turntable uniformly. After the spraying, it was allowed to stand in a thermostatic chamber at 25° C. Two days after the treatment of an agrochemical dispersion, the dead mites were counted, the corrected mortality rate was calculated according to the formula shown below, and the acaricidal efficacy was evaluated according to the criteria of Test Example 2. This test was conducted in duplicate using 10 adult hens of two-spotted spider per plot. Corrected mortality (%)=(Number of dead mites in a non-treatment plot−Number of dead mites in a treatment plot)/(Number of dead mites in a non-treatment plot)×100 [Expression 4]

| SMILES | acaricidal efficacy (corrected mortality rate) activity level |
| --- | --- |
| CCS(=O)(=O)n1c(-c2ccc(OCC(F)(F)F)nc2)nc2ccccc21 [Compound 1-1] | D or higher |
| CCS(=O)(=O)n1c(-c2ccc(OCC(F)(F)C(F)(F)F)nc2)nc2ccccc21 [Compound 1-2, 2-(2-(2,2,3,3,3-pentafluoropropyloxy)pyridin-5-yl)-1-ethanesulfonyl benzimidazole] | D or higher |
| CS(=O)(=O)n1c(-c2ccc(OCC(F)(F)C(F)(F)F)nc2)nc2ccccc21 [Compound 1-3] | D or higher |
| CCCS(=O)(=O)n1c(-c2ccc(OCC(F)(F)C(F)(F)F)nc2)nc2ccccc21 [Compound 1-4] | D or higher |
| CCCCS(=O)(=O)n1c(-c2ccc(OCC(F)(F)C(F)(F)F)nc2)nc2ccccc21 [Compound 1-5] | D or higher |
| CCS(=O)(=O)n1c(-c2ccc(OCC(F)(F)C(F)(F)F)nc2)nc2ccc(Br)cc21 [Compound 1-10] | D or higher |
| CCS(=O)(=O)n1c(-c2ccc(OCC(F)(F)C(F)(F)F)nc2)nc2cc(Cl)ccc21 [Compound 1-12] | D or higher |
| CCS(=O)(=O)n1c(-c2ccc(OCC(F)(F)C(F)(F)F)nc2)nc2ccc(Cl)cc21 [Compound 1-13] | D or higher |
| CCS(=O)(=O)n1c(-c2ccc(OCC(F)(F)C(F)(F)F)nc2)nc2cc(Cl)c(Cl)cc21 [Compound 1-14] | D or higher |
| CCS(=O)(=O)n1c(-c2ccc(OCC(F)(F)C(F)(F)F)nc2)nc2cc(Br)c(Br)cc21 [Compound 1-15] | D or higher |
| CCS(=O)(=O)n1c(-c2ccc(OCC(F)(F)C(F)(F)F)nc2)nc2cc(C)c(C)cc21 [Compound 1-17] | D or higher |
| CCS(=O)(=O)n1c(-c2cnc(OCC(F)(F)C(F)(F)F)c(Cl)c2)nc2ccccc21 [Compound 1-18] | D or higher |
| CCS(=O)(=O)n1c(-c2ccc(OCC(F)(F)C(F)F)nc2)nc2ccccc21 [Compound 1-19] | D or higher |
| CCS(=O)(=O)n1c(-c2ccc(OCC(F)(F)C(F)(F)C(F)(F)F)nc2)nc2ccccc21 [Compound 1-20] | D or higher |
| CCS(=O)(=O)n1c(-c2ccc(OCC(F)(F)C(F)(F)C(F)(F)F)nc2)nc2ccc(Br)cc21 [Compound 1-22] | D or higher |
| CCS(=O)(=O)n1c(-c2ccc(OC(C(F)(F)F)C(F)(F)F)nc2)nc2ccccc21 [Compound 1-23] | D or higher |
| CCS(=O)(=O)n1c(-c2ccc(OCC(F)(F)C(F)C(F)(F)F)nc2)nc2ccccc21 (centres unmarked) [Compound 1-24] | D or higher |
| CCS(=O)(=O)n1c(-c2ccc(Oc3ccc(SC(F)(F)F)cc3)nc2)nc2ccccc21 [Compound 1-40] | D or higher |
| CCS(=O)(=O)n1c(-c2ccc(Oc3ccc([S+]([O-])C(F)(F)F)cc3)nc2)nc2ccccc21 (centres unmarked) [Compound 1-41] | D or higher |
| CCS(=O)(=O)n1c(-c2ccc(Oc3ccc(S(=O)(=O)C(F)(F)F)cc3)nc2)nc2ccccc21 [Compound 1-42] | D or higher |
| CCS(=O)(=O)n1c(-c2ccc(OCc3ccc(SC(F)(F)F)cc3)nc2)nc2ccccc21 [Compound 1-43] | D or higher |
| CCS(=O)(=O)n1c(-c2ccc(OCc3ccc([S+]([O-])C(F)(F)F)cc3)nc2)nc2ccccc21 (centres unmarked) [Compound 1-44] | D or higher |
| O=S(=O)(CCl)n1c(-c2ccc(OCC(F)(F)C(F)(F)F)nc2)nc2ccccc21 [Compound 1-45] | D or higher |
| CCS(=O)(=O)n1c(-c2ccc(Oc3ccc(OC(F)(F)F)cc3)nc2)nc2ccccc21 [Compound 1-46] | D or higher |
| CCCCOc1ccc(-c2nc3ccccc3n2S(=O)(=O)CC)cn1 [Compound 1-47] | D or higher |

| SMILES | acaricidal efficacy (corrected mortality rate) activity level |
| --- | --- |
| CCCCCOc1ccc(-c2nc3ccccc3n2S(=O)(=O)CC)cn1 [Compound 1-48] | D or higher |
| CCCCCCOc1ccc(-c2nc3ccccc3n2S(=O)(=O)CC)cn1 [Compound 1-49] | D or higher |
| CCS(=O)(=O)n1c(-c2ccc(OC3CCCC3)nc2)nc2ccccc21 [Compound 1-50] | D or higher |
| CCS(=O)(=O)n1c(-c2ccc(OC3CCCCCC3)nc2)nc2ccccc21 [Compound 1-51] | D or higher |
| CCS(=O)(=O)n1c(-c2cncc(OCC(F)(F)C(F)(F)F)c2)nc2ccccc21 [Compound 3-1] | D or higher |
| CCCOc1ccc(-c2nc3ccccc3n2S(=O)(=O)CC)cn1 [Compound 5-1] | D or higher |
| CCS(=O)(=O)n1c(-c2ccc(OC(C)C)nc2)nc2ccccc21 [Compound 5-2] | D or higher |
| CCS(=O)(=O)n1c(-c2ccc(OC3CCCCC3)nc2)nc2ccccc21 [Compound 5-3] | D or higher |
| CCS(=O)(=O)n1c(-c2ccc(OCCC(C)(C)C)nc2)nc2ccccc21 [Compound 5-4] | D or higher |
| CCS(=O)(=O)n1c(-c2ccc(OCCOC)nc2)nc2ccccc21 [Compound 5-5] | D or higher |
| CCS(=O)(=O)n1c(-c2ccc(OCCSC)nc2)nc2ccccc21 [Compound 5-6] | D or higher |
| CCS(=O)(=O)n1c(-c2ccc(Oc3ccc([Si](C)(C)C)cc3)nc2)nc2ccccc21 [Compound 5-8] | D or higher |
| CCS(=O)(=O)n1c(-c2cnc(OCC(F)(F)F)c(Cl)c2)nc2ccccc21 [Compound 5-9] | D or higher |
| CCS(=O)(=O)n1c(-c2cnc(OCC(F)(F)C(F)F)c(Cl)c2)nc2ccccc21 [Compound 5-10] | D or higher |
| CCS(=O)(=O)n1c(-c2ccc(OCCC(F)(F)C(F)(F)C(F)(F)C(F)(F)C(F)(F)C(F)(F)F)nc2)nc2ccccc21 [Compound 5-11] | D or higher |
| CCS(=O)(=O)n1c(-c2ccc(OCC(F)(F)C(F)(F)C(F)(F)C(F)(F)C(F)(F)C(F)F)nc2)nc2ccccc21 [Compound 5-12] | D or higher |
| CCCSc1ccc(-c2nc3ccccc3n2S(=O)(=O)CC)cn1 [Compound 5-14] | D or higher |
| CCCCSc1ccc(-c2nc3ccccc3n2S(=O)(=O)CC)cn1 [Compound 5-17] | D or higher |
| CCS(=O)(=O)n1c(-c2ccc(SC3CCCC3)nc2)nc2ccccc21 [Compound 5-18] | D or higher |
| CCS(=O)(=O)n1c(-c2ccc(SC3CCCCC3)nc2)nc2ccccc21 [Compound 5-19] | D or higher |
| CCS(=O)(=O)n1c(-c2ccc(SCC3CC3)nc2)nc2ccccc21 [Compound 5-20] | D or higher |
| CCS(=O)(=O)n1c(-c2ccc(SCc3ccccc3)nc2)nc2ccccc21 [Compound 5-21] | D or higher |
| CCCCN(CCCC)c1ccc(-c2nc3ccccc3n2S(=O)(=O)CC)cn1 [Compound 5-24] | D or higher |
| CCCCN(C)c1ccc(-c2nc3ccccc3n2S(=O)(=O)CC)cn1 [Compound 5-25] | D or higher |
